Laboratory results from patent US10233180B2, “Substituted nitrogen-containing heterocyclic derivatives, pharmaceutical compositions comprising the same and applications of antitumor thereof” (ZHEJIANG UNIVERSITY, priority 2014, dated 2019).

What was measured:
[1] = test system: Human ovarian cancer cell strain OVCAR-8; assay: MTT assay, inhibition of tumor cell growth in vitro, 72 h; type: cell-based; conditions: Homo sapiens, OVCAR-8, MTT, read-out: Antitumor proliferative activities of tumor cell (IC50, μM) OVCAR-8
How it was run: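 OVCAR8 cells in RPMI 1640 plus FBS were seeded at 4000 cells/well and exposed for 72 h at 37 °C to compound at 50, 10, 2, 0.4 and 0.08 μM final, with 1% DMSO as blank. Inhibition was calculated from OD relative to control, and IC50 was derived by the Bliss method.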

Akt1 = target: T1, Akt1 (Homo sapiens, UniProt P31749); assay: AKT1/PKBα KinEASE FP Fluorescein Green Assay (fluorescence polarization kinase kit); type: biochemical; conditions: 1 h reaction, read-out: Inhibitory activities against Akt1 (IC50)
T1 construct: purchased 32-021
T1 sequence (P31749 whole entry): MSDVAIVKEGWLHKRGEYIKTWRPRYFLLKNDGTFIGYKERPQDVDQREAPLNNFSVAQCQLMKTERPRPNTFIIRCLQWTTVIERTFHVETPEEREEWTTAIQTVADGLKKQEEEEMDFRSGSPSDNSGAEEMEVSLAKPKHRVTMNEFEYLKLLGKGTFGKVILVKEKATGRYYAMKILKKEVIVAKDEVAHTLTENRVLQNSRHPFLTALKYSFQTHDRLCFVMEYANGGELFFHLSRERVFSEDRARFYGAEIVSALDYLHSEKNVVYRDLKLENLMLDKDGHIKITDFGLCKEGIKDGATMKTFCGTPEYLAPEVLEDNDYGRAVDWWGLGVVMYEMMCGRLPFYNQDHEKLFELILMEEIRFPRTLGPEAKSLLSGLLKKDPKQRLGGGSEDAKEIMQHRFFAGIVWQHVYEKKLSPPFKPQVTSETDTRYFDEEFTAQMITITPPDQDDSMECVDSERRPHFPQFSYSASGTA
How it was run: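 FP competition kinase assay: compounds (50 μM stock) with STK Substrate 3 and ATP, 1 h reaction at room temperature; stopped with stop/antibody mix, 4 h at room temperature, then polarization read. Inhibition derived from polarization values; IC50 calculated; triplicate wells.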

[2] = test system: human colon cancer cell strain HCT-116; assay: MTT assay, inhibition of tumor cell growth in vitro, 72 h; type: cell-based; conditions: Homo sapiens, HCT-116, MTT, read-out: Antitumor proliferative activities of tumor cell (IC50, μM) HCT-116 (converted)
How it was run: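 Cells in RPMI 1640 with FBS, 4000 cells/well, exposed 72 h at 37 °C, 5% CO2 to final 50, 10, 2, 0.4 and 0.08 μM; 1% DMSO blank. MTT OD gives % inhibition versus control; IC50 derived by Bliss method.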

In the case of `Cn1ncc(Cl)c1-c1cc(C(=O)N[C@@H]2CNC(CCN3CCC(O)CC3)C[C@H]2c2ccc(Cl)c(Cl)c2)oc1Cl` (stereo partly drawn) [Compound 114, 5-chloro-4-(4-chloro-1-methyl-1H-pyrazol-5-yl)-N-((3S,4S)-4-(3,4-dichlorophenyl)-6-(2-(4-hydroxylpiperidin-1-yl)ethyl)piperidin-3-yl)furan-2-formamide], the IC50 [1] is reported as 1.56 µM, the IC50 (Akt1) is reported as 14 nM and the IC50 [2] is reported as 1.1 µM.

For `Cn1ncc(Cl)c1-c1cc(C(=O)N[C@@H]2CNC(CCN3CCCC(O)C3)C[C@H]2c2ccc(Cl)c(Cl)c2)oc1Cl` (stereo partly drawn) [Compound 115, 5-chloro-4-(4-chloro-1-methyl-1H-pyrazol-5-yl)-N-((3S,4S)-4-(3,4-dichlorophenyl)-6-(2-(3-hydroxylpiperidin-1-yl)ethyl)piperidin-3-yl)furan-2-formamide], the IC50 [1] was 0.78 µM, the IC50 (Akt1) was 0.8 nM and the IC50 [2] was 0.56 µM.

`Cn1ncc(Cl)c1-c1cc(C(=O)N[C@@H]2CNC(CC(=O)O)C[C@H]2c2ccc(Cl)c(Cl)c2)oc1Cl` (stereo partly drawn) [Compound 116, 2-((4S,5S)-5-(5-chloro-4-(4-chloro-1-methyl-1H-pyrazol-5-yl)furan-2-formamide)-4-(3,4-dichlorophenyl)piperidin-2-yl)acetic acid] showed an IC50 [1] of 3.68 µM, an IC50 (Akt1) of 1 nM and an IC50 [2] of 5.01 µM.

`Cn1ncc(Cl)c1-c1cc(C(=O)N[C@@H]2CNC(CC(N)=O)C[C@H]2c2ccc(Cl)c(Cl)c2)oc1Cl` (stereo partly drawn) [Compound 117, N-((3S,4S)-6-(2-amido-2-oxoethyl)-4-(3,4-dichlorophenyl)piperidin-3-yl)-5-chloro-4-(4-chloro-1-methyl-1H-pyrazol-5-yl)furan-2-formamide] gave an IC50 [1] of 0.92 µM, an IC50 (Akt1) of 3 nM and an IC50 [2] of 4.28 µM.

`CNC(=O)CC1C[C@@H](c2ccc(Cl)c(Cl)c2)[C@H](NC(=O)c2cc(-c3c(Cl)cnn3C)c(Cl)o2)CN1` (stereo partly drawn) [Compound 118, 5-chloro-4-(4-chloro-1-methyl-1H-pyrazol-5-yl)-N-((3S,4S)-4-(3,4-dichlorophenyl)-6-(2-(methylamido)-2-oxoethyl)piperidin-3-yl)furan-2-formamide] gave an IC50 [1] of 4.02 µM, an IC50 (Akt1) of 3 nM and an IC50 [2] of 3.68 µM.

`Cn1ncc(Cl)c1-c1cc(C(=O)N[C@@H]2CNC(CC(=O)NC3CC3)C[C@H]2c2ccc(Cl)c(Cl)c2)oc1Cl` (stereo partly drawn) [Compound 119, 5-chloro-4-(4-chloro-1-methyl-1H-pyrazol-5-yl)-N-((3S,4S)-6-(2-(cyclopropylamido)-2-oxoethyl)-4-(3,4-dichlorophenyl)piperidin-3-yl)furan-2-formamide] showed an IC50 [1] of 0.65 µM, an IC50 (Akt1) of 4 nM and an IC50 [2] of 1.47 µM.

With `Cn1ncc(Cl)c1-c1cc(C(=O)N[C@@H]2CNC(CC(=O)NC3CCC3)C[C@H]2c2ccc(Cl)c(Cl)c2)oc1Cl` (stereo partly drawn) [Compound 120, 5-chloro-4-(4-chloro-1-methyl-1H-pyrazol-5-yl)-N-((3S,4S)-6-(2-(cyclobutylamido)-2-oxoethyl)-4-(3,4-dichlorophenyl)piperidin-3-yl)furan-2-formamide] the IC50 [1] was 0.45 µM, the IC50 (Akt1) was 3 nM and the IC50 [2] was 0.44 µM.

`Cn1ncc(Cl)c1-c1cc(C(=O)N[C@@H]2CNC(CC(=O)NCC(O)CO)C[C@H]2c2ccc(Cl)c(Cl)c2)oc1Cl` (stereo partly drawn) [Compound 121, 5-chloro-4-(4-chloro-1-methyl-1H-pyrazol-5-yl)-N-((3S,4S)-4-(3,4-dichlorophenyl)-6-(2-((2,3-dihydroxypropyl)amido)-2-oxoethyl)piperidin-3-yl)furan-2-formamide] was tested, and the IC50 [1] was 0.74 µM, the IC50 (Akt1) was 5 nM and the IC50 [2] was 0.36 µM.

For `Cn1ncc(Cl)c1-c1cc(C(=O)N[C@@H]2CNC(CCn3cncn3)C[C@H]2c2ccc(Cl)c(Cl)c2)oc1Cl` (stereo partly drawn) [Compound 122, N-((3S,4S)-6-(2-(1H-1,2,4-triazol-1-yl)ethyl)-4-(3,4-dichlorophenyl)piperidin-3-yl)-5-chloro-4-(4-chloro-1-methyl-1H-pyrazol-5-yl)furan-2-formamide], the IC50 [1] was 0.43 µM, the IC50 (Akt1) was 2 nM and the IC50 [2] was 1.02 µM.

With `Cn1ncc(Cl)c1-c1cc(C(=O)N[C@@H]2CNC(CCNCC(O)CO)C[C@H]2c2ccc(Cl)c(Cl)c2)oc1Cl` (stereo partly drawn) [Compound 123, 5-chloro-4-(4-chloro-1-methyl-1H-pyrazol-5-yl)-N-((3S,4S)-4-(3,4-dichlorophenyl)-6-(2-((2,3-dihydroxypropyl)amido)ethyl)piperidin-3-yl)furan-2-formamide] the IC50 [1] was 0.09 µM, the IC50 (Akt1) was 0.1 nM and the IC50 [2] was 0.07 µM.

With `COCCC1C[C@@H](c2ccc(Cl)c(Cl)c2)[C@H](NC(=O)c2cc(-c3c(Cl)cnn3C)c(Cl)o2)CN1` (stereo partly drawn) [Compound 124, 5-chloro-4-(4-chloro-1-methyl-1H-pyrazol-5-yl)-N-((3S,4S)-4-(3,4-dichlorophenyl)-6-(2-methoxyethyl)piperidin-3-yl)furan-2-formamide] the IC50 [1] was 0.56 µM, the IC50 (Akt1) was 1 nM and the IC50 [2] was 0.34 µM.

In the case of `Cn1ncc(Cl)c1-c1cc(C(=O)N[C@@H]2CNC(CC(=O)NCCO)C[C@H]2c2ccc(Cl)c(Cl)c2)oc1Cl` (stereo partly drawn) [Compound 125, 5-chloro-4-(4-chloro-1-methyl-1H-pyrazol-5-yl)-N-((3S,4S)-4-(3,4-dichlorophenyl)-6-(2-((2-hydroxyethyl)amido)-2-oxoethyl)piperidin-3-yl)furan-2-formamide], the IC50 [1] is reported as 0.12 µM, the IC50 (Akt1) is reported as 0.1 nM and the IC50 [2] is reported as 1.25 µM.

`CC(=O)NCCC1C[C@@H](c2ccc(F)c(F)c2)[C@H](NC(=O)c2cc(-c3c(Cl)cnn3C)c(Cl)o2)CN1` (stereo partly drawn) [Compound 126, N-((3S,4S)-6-(2-acetaminoethyl)-4-(3,4-difluorophenyl)piperidin-3-yl)-5-chloro-4-(4-chloro-1-methyl-1H-pyrazol-5-yl)furan-2-formamide] showed an IC50 [1] of 0.47 µM, an IC50 (Akt1) of 0.2 nM and an IC50 [2] of 5.82 µM.

`Cn1ncc(Cl)c1-c1cc(C(=O)N[C@@H]2CNC(CCNS(C)(=O)=O)C[C@H]2c2ccc(F)c(F)c2)oc1Cl` (stereo partly drawn) [Compound 127, 5-chloro-4-(4-chloro-1-methyl-1H-pyrazol-5-yl)-N-((3S,4S)-4-(3,4-difluorophenyl)-6-(2-(methylsulfonamido)ethyl)piperidin-3-yl)furan-2-formamide] showed an IC50 [1] of 0.67 µM, an IC50 (Akt1) of 0.3 nM and an IC50 [2] of 0.89 µM.

In the case of `Cn1ncc(Cl)c1-c1cc(C(=O)N[C@@H]2CNC(CC(O)CO)C[C@H]2c2ccc(F)c(F)c2)oc1Cl` (stereo partly drawn) [Compound 128, 5-chloro-4-(4-chloro-1-methyl-1H-pyrazol-5-yl)-N-((3S,4S)-4-(3,4-difluorophenyl)-6-(2,3-dihydroxypropyl)piperidin-3-yl)furan-2-formamide], the IC50 [1] is reported as 0.92 µM, the IC50 (Akt1) is reported as 0.5 nM and the IC50 [2] is reported as 0.95 µM.

`Cn1ncc(Cl)c1-c1cc(C(=O)N[C@@H]2CNC(CCO)C[C@H]2c2ccc(F)c(F)c2)oc1Cl` (stereo partly drawn) [Compound 129, 5-chloro-4-(4-chloro-1-methyl-1H-pyrazol-5-yl)-N-((3S,4S)-4-(3,4-difluorophenyl)-6-(2-hydroxyethyl)piperidin-3-yl)furan-2-formamide] gave an IC50 [1] of 0.51 µM, an IC50 (Akt1) of 0.4 nM and an IC50 [2] of 0.78 µM.

With `CCCC1C[C@@H](c2ccc(Cl)c(Cl)c2)[C@H](NC(=O)c2cc(-c3c(Cl)cnn3C)c(Cl)o2)CN1` (stereo partly drawn) [Compound 130, 5-chloro-4-(4-chloro-1-methyl-1H-pyrazol-5-yl)-N-((3S,4S)-4-(3,4-dichlorophenyl)-6-propylpiperidin-3-yl)furan-2-formamide] the IC50 [1] was 1.06 µM, the IC50 (Akt1) was 0.5 nM and the IC50 [2] was 4.1 µM.

`CC(=O)OCCC1C[C@@H](c2ccc(F)c(F)c2)[C@H](NC(=O)c2cc(-c3c(Cl)cnn3C)c(Cl)o2)CN1` (stereo partly drawn) [Compound 131, 2-((4S,5S)-5-(5-chloro-4-(4-chloro-1-methyl-1H-pyrazol-5-yl)furan-2-formamido)-4-(3,4-difluorophenyl)piperidin-2-yl)ethylacetate] gave an IC50 [1] of 4.69 µM, an IC50 (Akt1) of 0.8 nM and an IC50 [2] of 0.92 µM.

Work on `Cn1ncc(Cl)c1-c1cc(C(=O)N[C@@H]2CNC(CCOC(=O)C(F)(F)F)C[C@H]2c2ccc(F)c(F)c2)oc1Cl` (stereo partly drawn) [Compound 132, 2-((4S,5S)-5-(5-chloro-4-(4-chloro-1-methyl-1H-pyrazol-5-yl)furan-2-formamido)-4-(3,4-difluorophenyl)piperidin-2-yl)ethyl 2,2,2-trifluoroacetate] yielded an IC50 [1] of 1.33 µM, an IC50 (Akt1) of 2 nM and an IC50 [2] of 1.21 µM.

For `CNC(=O)CC1C[C@@H](c2ccc(F)c(F)c2)[C@H](NC(=O)c2cc(-c3c(Cl)cnn3C)cs2)CN1` (stereo partly drawn) [Compound 133, 4-(4-chloro-1-methyl-1H-pyrazol-5-yl)-N-((3S,4S)-4-(3,4-difluorophenyl)-6-(2-(methylamido)-2-oxyethyl)piperidin-3-yl)thiophene-2-formamide], the IC50 [1] was 5.79 µM, the IC50 (Akt1) was 3 nM and the IC50 [2] was 0.42 µM.

Compound `CCC[C@H]1CNC[C@@H](NC(=O)c2cc(-c3c(Cl)cnn3C)c(Cl)s2)[C@@H]1c1cccc(F)c1` [Compound 134, 5-chloro-4-(4-chloro-1-methyl-1H-pyrazol-5-yl)-N-((3S,4S,5R)-4-(3-fluorophenyl)-5-propylpiperidin-3-yl)thiophene-2-formamide] has an IC50 [1] of 0.53 µM, an IC50 (Akt1) of 0.3 nM and an IC50 [2] of 0.69 µM.

Work on `C[C@H]1CNC[C@@H](NC(=O)c2cc(-c3c(Cl)cnn3C)c(Cl)s2)[C@@H]1c1cccc(F)c1` [Compound 135, 5-chloro-4-(4-chloro-1-methyl-1H-pyrazol-5-yl)-N-((3S, 4S, 5R)-4-(3-fluorophenyl)-5-methylpiperidin-3-yl)thiophene-2-formamide] yielded an IC50 [1] of 1.2 µM, an IC50 (Akt1) of 12 nM and an IC50 [2] of 0.8 µM.
